According to ChEMBL document CHEMBL3232730, “Design, synthesis and bioevaluation of N-trisubstituted pyrimidine derivatives as potent aurora A kinase inhibitors” (Eur J Med Chem, 2014):

What was measured:
[1] = Antiproliferative activity against human SKBR3 cells assessed as cell viability after 72 hrs by CCK8 assay; assay type: functional, cell-based, SK-BR-3; conditions: Homo sapiens, SK-BR-3, 72 h; read-out: IC50
[2] = Cell cycle arrest in human CNE2 cells assessed as accumulation at G2/M phase at 1 uM after 24 hrs by propidium iodide staining-based flow cytometric analysis (reference value: 38.2%); assay type: functional; conditions: CNE-2
K562 = assay: Antiproliferative activity against human K562 cells assessed as cell viability after 72 hrs by CCK8 assay; assay type: functional, cell-based; conditions: Homo sapiens, K562, 72 h; read-out: IC50
MDA-MB-231 = assay: Antiproliferative activity against human MDA-MB-231 cells assessed as cell viability after 72 hrs by CCK8 assay; assay type: functional, cell-based; conditions: Homo sapiens, MDA-MB-231, 72 h; read-out: IC50
HL-60 = assay: Antiproliferative activity against human HL60 cells assessed as cell viability after 72 hrs by CCK8 assay; assay type: functional, cell-based; conditions: Homo sapiens, HL-60, 72 h; read-out: IC50
[3] = Cell cycle arrest in human CNE2 cells assessed as accumulation at polyploid period at 1 uM after 24 hrs by propidium iodide staining-based flow cytometric analysis (reference value: […]); assay type: functional; conditions: CNE-2
NCI-N87 = assay: Antiproliferative activity against human NCI-N87 cells assessed as cell viability after 72 hrs by CCK8 assay; assay type: functional, cell-based; conditions: Homo sapiens, NCI-N87, 72 h; read-out: IC50
A-431 = assay: Antiproliferative activity against human A431 cells assessed as cell viability after 72 hrs by CCK8 assay; assay type: functional, cell-based; conditions: Homo sapiens, A-431, 72 h; read-out: IC50
U-937 = assay: Antiproliferative activity against human U937 cells assessed as cell viability after 72 hrs by CCK8 assay; assay type: functional, cell-based; conditions: Homo sapiens, U-937, 72 h; read-out: IC50
[4] = Cell cycle arrest in human CNE2 cells assessed as accumulation at G1 phase at 1 uM after 24 hrs by propidium iodide staining-based flow cytometric analysis (reference value: 52.5%); assay type: functional; conditions: CNE-2
HeLa = assay: Antiproliferative activity against human HeLa cells assessed as cell viability after 72 hrs by CCK8 assay; assay type: functional, cell-based; conditions: Homo sapiens, HeLa, 72 h; read-out: IC50
[5] = Antiproliferative activity against human PANC1 cells assessed as cell viability after 72 hrs by CCK8 assay; assay type: functional, cell-based; conditions: PANC-1, 72 h
DU-145 = assay: Antiproliferative activity against human DU145 cells assessed as cell viability after 72 hrs by CCK8 assay; assay type: functional, cell-based; conditions: Homo sapiens, DU-145, 72 h; read-out: IC50
[6] = Antiproliferative activity against human MOLT4 cells assessed as cell viability after 72 hrs by CCK8 assay; assay type: functional, cell-based, MOLT-4; conditions: Homo sapiens, MOLT-4, 72 h; read-out: IC50
Aurora kinase A = target: T1, Aurora kinase A (Homo sapiens, UniProt O14965); assay: Inhibition of Aurora A (unknown origin) using FAM-labeled peptide as substrate preincubated for 10 mins followed by substrate addition measured after 60 mins
T1 sequence (O14965 whole entry): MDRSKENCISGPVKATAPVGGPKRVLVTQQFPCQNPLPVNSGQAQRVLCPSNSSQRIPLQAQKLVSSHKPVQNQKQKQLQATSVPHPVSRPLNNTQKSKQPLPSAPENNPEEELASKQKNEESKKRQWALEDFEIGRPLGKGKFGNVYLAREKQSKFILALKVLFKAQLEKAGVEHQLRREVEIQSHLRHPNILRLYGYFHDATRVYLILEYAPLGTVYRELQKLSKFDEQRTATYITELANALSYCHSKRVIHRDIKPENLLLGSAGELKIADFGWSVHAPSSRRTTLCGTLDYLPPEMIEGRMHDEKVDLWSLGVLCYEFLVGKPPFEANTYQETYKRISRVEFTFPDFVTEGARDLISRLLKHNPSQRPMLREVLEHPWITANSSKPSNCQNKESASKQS

PC-3 = assay: Antiproliferative activity against human PC3 cells assessed as cell viability after 72 hrs by CCK8 assay; assay type: functional, cell-based; conditions: Homo sapiens, PC-3, 72 h; read-out: IC50
MCF7 = assay: Antiproliferative activity against human MCF7 cells assessed as cell viability after 72 hrs by CCK8 assay; assay type: functional, cell-based; conditions: Homo sapiens, MCF7, 72 h; read-out: IC50
HCT-116 = assay: Antiproliferative activity against human HCT116 cells assessed as cell viability after 72 hrs by CCK8 assay; assay type: functional, cell-based; conditions: Homo sapiens, HCT-116, 72 h; read-out: IC50
[7] = Cell cycle arrest in human CNE2 cells assessed as accumulation at S phase at 1 uM after 24 hrs by propidium iodide staining-based flow cytometric analysis (reference value: 14.7%); assay type: functional; conditions: CNE-2
A549 = assay: Antiproliferative activity against human A549 cells assessed as cell viability after 72 hrs by CCK8 assay; assay type: functional, cell-based; conditions: A549, 72 h
[8] = Cell cycle arrest in human CNE2 cells assessed as accumulation at polyploid period at 0.1 uM after 24 hrs by propidium iodide staining-based flow cytometric analysis (reference value: […]%); assay type: functional; conditions: CNE-2
[9] = Cell cycle arrest in human CNE2 cells assessed as accumulation at S phase at 0.1 uM after 24 hrs by propidium iodide staining-based flow cytometric analysis (reference value: 13.1%); assay type: functional; conditions: CNE-2
[10] = Cell cycle arrest in human CNE2 cells assessed as accumulation at G1 phase at 0.01 uM after 24 hrs by propidium iodide staining-based flow cytometric analysis (reference value: 52.5%); assay type: functional; conditions: CNE-2
[11] = Cell cycle arrest in human CNE2 cells assessed as accumulation at G2/M phase at 0.01 uM after 24 hrs by propidium iodide staining-based flow cytometric analysis (reference value: 31%); assay type: functional; conditions: CNE-2
[12] = Cell cycle arrest in human CNE2 cells assessed as accumulation at G2/M phase after 24 hrs by propidium iodide staining-based flow cytometric analysis; assay type: functional; conditions: CNE-2
[13] = Cell cycle arrest in human CNE2 cells assessed as accumulation at polyploid period at 0.01 uM after 24 hrs by propidium iodide staining-based flow cytometric analysis (reference value: […]); assay type: functional; conditions: CNE-2
[14] = Cell cycle arrest in human CNE2 cells assessed as accumulation at G1 phase at 0.1 uM after 24 hrs by propidium iodide staining-based flow cytometric analysis (reference value: […]); assay type: functional; conditions: CNE-2
[15] = Cell cycle arrest in human CNE2 cells assessed as accumulation at S phase at 0.01 uM after 24 hrs by propidium iodide staining-based flow cytometric analysis (reference value: 14.9%); assay type: functional; conditions: CNE-2
[16] = Cell cycle arrest in human CNE2 cells assessed as accumulation at G2/M phase at 0.1 uM after 24 hrs by propidium iodide staining-based flow cytometric analysis (reference value: 24.5%); assay type: functional; conditions: CNE-2

Row | Structure (SMILES) | IC50 (K562) [nM] | IC50 (MDA-MB-231) [nM] | IC50 (HL-60) [nM] | IC50 (A-431) [nM] | IC50 (U-937) [nM] | IC50 (HeLa) [nM] | IC50 (DU-145) [nM] | IC50 (Aurora kinase A) [nM] | IC50 (PC-3) [nM] | IC50 (MCF7) [nM] | IC50 (HCT-116) [nM] | IC50 (A549) [nM] | IC50 [1] [nM] | Activity [2] [%] | Activity [3] [%] | IC50 (NCI-N87) [nM] | Activity [4] [%] | IC50 [5] [nM] | IC50 [6] [nM] | Activity [7] [%] | also measured
1 | COc1cccc(Nc2nc(Nc3cc(C)[nH]n3)cc(N3CCN(C)CC3)n2)c1 | 509 | 240 | 397 | 332 | 126 | 546 | 2650 | 22 | 1080 | 933 | 923 | 1690 | 11300 | 92.5 | 2.4 | 7190 | 3.2 | 693 | 192 | 1.7 | Activity [8]: 4%; Activity [9]: 6.9%; Activity [10]: 61.7%; Activity [11]: 26.1%; Activity [12]: Dose-dependent effect; Activity [13]: 4.6%; Activity [14]: 57.2%; Activity [15]: 8.1%; Activity [16]: 32.2%
2 | COC(=O)c1ccc(Nc2nc(Nc3cc(C)[nH]n3)cc(N3CCOCC3)n2)cc1 | 537 | 571 | 750 | 832 | 447 | 1890 | 611 | 25 | 1090 | 938 | 1040 | 1590 | 3180 | 35.7 | 4 | 3230 | 52.9 | 1590 | 302 | 7.1 | 

Molecules with a lower IC50 (K562), results first:

Row | IC50 (K562) [nM] | IC50 (MDA-MB-231) [nM] | IC50 (HL-60) [nM] | IC50 (A-431) [nM] | IC50 (U-937) [nM] | IC50 (HeLa) [nM] | IC50 (DU-145) [nM] | IC50 (Aurora kinase A) [nM] | IC50 (PC-3) [nM] | IC50 (MCF7) [nM] | IC50 (HCT-116) [nM] | IC50 (A549) [nM] | Structure (SMILES) | IC50 [1] [nM] | Activity [2] [%] | Activity [3] [%] | IC50 (NCI-N87) [nM] | Activity [4] [%] | IC50 [5] [nM] | IC50 [6] [nM] | Activity [7] [%] | also measured
3 | 359 | 359 | 203 | 532 | 119 | 1270 | 798 | 46 | 1500 | 1780 | 672 | 1830 | COC(=O)c1ccc(Nc2nc(Nc3cc(C)[nH]n3)cc(N3CCN(C)CC3)n2)cc1 | 8650 | 84.3 | 11.2 | 17800 | 1.7 | 1080 | 161 | 2.2 | 
4 | 271 | 243 | 335 | 385 | 92.3 | 867 | 5050 | 34 | 2000 | 2750 | 2240 | 2650 | COc1ccc(Nc2nc(Nc3cc(C)[nH]n3)cc(N3CCN(C)CC3)n2)cc1 | 14700 | 90.6 | 2.4 | 18900 | 3.4 | 1120 | 116 | 2.2 | 
5 | 97.2 | 56.4 | 131 | 87.5 | 21.7 | 425 | 3090 | 10 | 573 | 436 | 736 | 723 | Cc1cc(Nc2cc(N3CCN(C)CC3)nc(Nc3cccc(Cl)c3)n2)n[nH]1 | 2290 | 90.5 | 3.9 | 1770 | 3.3 | 351 | 20.1 | 1.7 | 
